Here are results for 4 compounds from EP3183252B1, “OXALATE SALT OF RUXOLITINIB” (ratiopharm GmbH, priority 2014, dated 2016).

Common to all, as to assay type: physicochemical
Data set [1] in a line: pH-dependencies of solubility at 37°C. To be noted: for solubility at 0.5 h / solubility at 1 h / solubility at 24 h / pH dependency of solubility (in words) / solubility: 37°C; for solubility at 1 h / solubility at 24 h: thermodynamic from solid; for pH dependency of solubility (in words): pH 4.5 and 6.8. From the text: The intestinal tract obeys different pH ranges, which vary from pH 1 to 2 of the empty stomach, pH 3-5 for stomach filled with chyme, to pH 5-7.5 of the colon.

A short description of data set [2]: Storage stability: chemical purity by HPLC/UV. The note with it: for Chemical purity ([area-%] at λ=230 nm): 40°C/75% rh. The method, then:
(§1) Samples were stored in closed and open containers at 25°C/60% rh and at 40°C/75% rh and analyzed after 4, 8 and 12 weeks.
The results of determination of the chemical purity during storage at 40°C/75% rh are summarized. Both salts remained chemically stable when stored under these conditions. Therefore, the analysis of samples, which were stored at 25°C/60% rh, was omitted.

Data set [3] is described as follows: Storage stability: solid state by XRPD analysis. The method, then: The sample was analyzed on a D8 Advance X-ray powder diffractometer (Bruker-AXS, Karlsruhe, Germany). The sample holder was rotated in a plane parallel to its surface at 20 rpm during the measurement. The raw data were analyzed with the program EVA (Bruker-AXS, Germany). The samples were layered onto a silicon specimen holder
as §1
The solid-state stability was investigated by XRPD analysis. The results of evaluation are summarized. Ruxolitinib phosphate and Ruxolitinib oxalate remained unchanged throughout the observation period.

A short description of data set [4]: Dynamic vapor sorption experiment (hygroscopicity). How it is done:
Vapour sorption experiments were performed in the instrument SPSx-1µ (Projekt Messtechnik, Ulm, Germany) at temperature of 25°C and the humidity cycles as shown below.
A dynamic vapor sorption experiment was performed with Ruxolitinib oxalate. At a constant temperature of 25°C, the substance was exposed to two cycles of varying relative humidity (rh) (40% → 0% →95% (75% r.h. kept constant for 48h) → 0% →40%). Figure 3a presents the relative weight change as a function of time and relative humidity and in […] changes are illustrated as a function of humidity.

[5] abbreviates: 20mM sodium acetate pH 4.5, 0.5 h.
Setting [6] is: aqueous buffer, 20mM sodium acetate pH 4.5, 1 h.
Where [7] appears, read: aqueous buffer, 20mM sodium acetate pH 4.5, 24 h.
Setting [8] is: aqueous buffer, 50mM KH2PO4 pH 6.8, 1 h.
Where [9] appears, read: aqueous buffer, 50mM KH2PO4 pH 6.8, 24 h.
Where [10] appears, read: pH 1.2, simulated gastric fluid, 0.1M HCl pH1.2, 1 h.
Setting [11] is: pH 1.2, simulated gastric fluid, 0.1M HCl pH1.2, 24 h.

SMILES strings stand for the structures. Where a name gives a salt, the structure may show the parent alone.

The solubility is the dissolved amount per volume that the medium holds.

On to `N#CC[C@H](C1CCCC1)n1cc(-c2ncnc3[nH]ccc23)cn1` (stereo in doubt) [Ruxolitinib maleate], for which the solubility at 0.5 h in data set [1] (setting [5]) came to 2.8 mg/mL; in data set [1] (50mM KH2PO4 pH 6.8, 0.5 h), 2.9 mg/mL; in data set [1] (pH 1.2, 0.1M HCl pH1.2, 0.5 h), 12.5 mg/mL. Besides, the solubility at 1 h in data set [1] (setting [6]) was 3.2 mg/mL; in data set [1] (setting [8]), 2.9 mg/mL; in data set [1] (setting [10]), 12 mg/mL. Also, the solubility at 24 h in data set [1] (setting [7]) was 2.4 mg/mL; in data set [1] (setting [9]), 2.5 mg/mL; in data set [1] (setting [11]), 12.2 mg/mL. In addition, the “pH dependency of solubility (in words)” value in data set [1] is “distinct pH dependency”.

For `N#CC[C@H](C1CCCC1)n1cc(-c2ncnc3[nH]ccc23)cn1` [Ruxolitinib phosphate], the “Chemical purity ([area-%] at λ=230 nm)” value is recorded as 99,04% area-% in data set [2] (closed, 4 weeks); 99,20% area-% in data set [2] (closed, 8 weeks); 99,03% area-% in data set [2] (closed, 12 weeks); 99,05 area-% in data set [2] (closed, t = 00 (= initial)); 99,13% area-% in data set [2] (open, 4 weeks); 99,28% area-% in data set [2] (open, 8 weeks). Besides, the “Chemical purity ([area-%] at λ=230 nm)” value is given as 99,10% area-% in data set [2] (open, 12 weeks) and 99,05 area-% in data set [2] (open, t = 00 (= initial)). The “Evaluation of XRPD analysis” value was “unchanged” in data set [3] (25°C/60% rh, closed, 4 weeks); “unchanged” in data set [3] (25°C/60% rh, closed, 8 weeks); “unchanged” in data set [3] (25°C/60% rh, closed, 12 weeks); “unchanged” in data set [3] (25°C/60% rh, open, 4 weeks); “unchanged” in data set [3] (25°C/60% rh, open, 8 weeks); “unchanged” in data set [3] (25°C/60% rh, open, 12 weeks). The “Evaluation of XRPD analysis” value in data set [3] (40°C/75% rh, closed, 4 weeks) is “unchanged”; in data set [3] (40°C/75% rh, closed, 8 weeks) it was “unchanged”; in data set [3] (40°C/75% rh, closed, 12 weeks), “unchanged”; in data set [3] (40°C/75% rh, open, 4 weeks), “unchanged”; in data set [3] (40°C/75% rh, open, 8 weeks), “unchanged”; in data set [3] (40°C/75% rh, open, 12 weeks), “unchanged”. In addition, the solubility at 1 h in data set [1] (20mM sodium acetate buffer, aqueous buffer, 20mM sodium acetate pH 4.5, 1 h) is 6 mg/mL; in data set [1] (50mM KH2PO4 buffer, aqueous buffer, 50mM KH2PO4 pH 6.8, 1 h) it was 4.7 mg/mL; in data set [1] (setting [10]), 43.2 mg/mL. In addition, the solubility at 24 h in data set [1] (20mM sodium acetate buffer, aqueous buffer, 20mM sodium acetate pH 4.5, 24 h) is 6.8 mg/mL; in data set [1] (50mM KH2PO4 buffer, aqueous buffer, 50mM KH2PO4 pH 6.8, 24 h), 5.7 mg/mL; in data set [1] (setting [11]), 44 mg/mL. Moreover, the “solubility (in words)” value in data set [1] (higher pH points than pH 1.2) is recorded as “considerably less solubility”; in data set [1] (pH 1.2), “good solubility”.

Take `N#CC[C@H](C1CCCC1)n1cc(-c2ncnc3[nH]ccc23)cn1` [Ruxolitinib oxalate]: the “stable upon storage for” value in data set [2] (25°C and 60% relative humidity (RH)) is “at least 12 weeks”; in data set [2] (40°C/75% RH), “at least 12 weeks”. In addition, the “Chemical purity ([area-%] at λ=230 nm)” value in data set [2] (closed, 4 weeks) is on record as 100,00% area-%; in data set [2] (closed, 8 weeks), 99,95% area-%; in data set [2] (closed, 12 weeks), 99,90% area-%; in data set [2] (closed, t = 00 (= initial)) it was 99,89 area-%; in data set [2] (open, 4 weeks), 100,00% area-%; in data set [2] (open, 8 weeks), 99,91% area-%. In addition, the “Chemical purity ([area-%] at λ=230 nm)” value in data set [2] (open, 12 weeks) is recorded as 99,85% area-%; in data set [2] (open, t = 00 (= initial)), 99,89 area-%. Besides, in data set [4], the “solid state by XRPD analysis after the DVS experiment, compared to prior” value is on record as “identical”. Further, the “solubility overall (in words)” value in data set [1] is listed as “good solubility”. Also, the solubility at 0.5 h in data set [1] (setting [5]) is 24.1 mg/mL; in data set [1] (50mM KH2PO4 pH 6.8, 0.5 h), 21.5 mg/mL; in data set [1] (pH 1.2, 0.1M HCl pH1.2, 0.5 h), 57.8 mg/mL. Moreover, the solubility at 1 h in data set [1] (setting [6]) is 27.7 mg/mL; in data set [1] (setting [8]), 23.5 mg/mL; in data set [1] (setting [10]), 56.3 mg/mL. In addition, the solubility at 24 h in data set [1] (setting [7]) is 29.9 mg/mL; in data set [1] (setting [9]), 23.9 mg/mL; in data set [1] (setting [11]) it was 57.4 mg/mL.

With `N#CC[C@H](C1CCCC1)n1cc(-c2ncnc3[nH]ccc23)cn1` (stereo in doubt) [Ruxolitinib sulfate], the solubility in data set [1] (20mM sodium acetate pH 4.5, 0.5 h, 30 min) came to 10.4 mg/mL; in data set [1] (20mM sodium acetate pH 4.5, 1 h, 60 min), 10.6 mg/mL; in data set [1] (20mM sodium acetate pH 4.5, 24 h, 1440 min), 9.5 mg/mL; in data set [1] (50mM KH2PO4 pH 6.8, 0.5 h, 30 min), 9.6 mg/mL; in data set [1] (50mM KH2PO4 pH 6.8, 1 h, 60 min), 9.8 mg/mL; in data set [1] (50mM KH2PO4 pH 6.8, 24 h, 1440 min), 8.3 mg/mL. Further, the solubility in data set [1] (0.1M HCl pH1.2, 0.5 h, 30 min) was determined as 18.5 mg/mL; in data set [1] (0.1M HCl pH1.2, 1 h, 60 min), 18.5 mg/mL; in data set [1] (0.1M HCl pH1.2, 24 h, 1440 min), 16.7 mg/mL. Further, the “pH dependency of solubility (in words)” value in data set [1] is listed as “less pH dependency”.
